Patent US8722683B2, “Benzodioxole piperazine compounds” (Hoffmann LA-Roche Inc., priority 2011, dated 2014)
Like-named read-outs stand apart in the source and are kept apart here.

What was measured:
[1] = target: D3 receptor (Homo sapiens (Human), UniProt P35462); test: Radioligand binding ([3H]-spiperone) to cloned D3 receptor expressed in HEK-293 EBNA cells; conditions: HEK293 EBNA membranes, 0.5 nM [3H]-spiperone
[2] = target: D2 receptor (Homo sapiens (Human), UniProt P14416); test: Radioligand binding ([3H]-spiperone) to cloned D2 receptor expressed in HEK-293 EBNA cells; conditions: HEK293 EBNA membranes, 0.7 nM [3H]-spiperone
Sequence of D2 receptor (P14416 whole entry): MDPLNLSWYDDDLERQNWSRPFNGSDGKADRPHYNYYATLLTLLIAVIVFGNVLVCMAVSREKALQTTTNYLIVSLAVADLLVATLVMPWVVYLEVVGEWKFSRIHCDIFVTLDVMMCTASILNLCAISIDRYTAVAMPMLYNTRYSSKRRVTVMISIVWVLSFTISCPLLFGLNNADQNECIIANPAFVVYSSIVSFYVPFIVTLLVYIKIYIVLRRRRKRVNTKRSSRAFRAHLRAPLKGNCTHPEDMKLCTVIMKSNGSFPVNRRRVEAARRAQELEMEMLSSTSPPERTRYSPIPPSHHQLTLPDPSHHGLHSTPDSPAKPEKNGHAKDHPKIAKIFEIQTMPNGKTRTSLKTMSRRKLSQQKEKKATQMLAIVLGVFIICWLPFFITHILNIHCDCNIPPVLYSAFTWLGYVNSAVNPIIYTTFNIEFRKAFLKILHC

[3] = target: 5-HT2A receptor (Homo sapiens (Human), UniProt P28223); test: Radioligand binding ([3H]-ketanserin) to cloned 5-HT2A receptor expressed in HEK-293 EBNA cells
Sequence of 5-HT2A receptor (P28223 whole entry): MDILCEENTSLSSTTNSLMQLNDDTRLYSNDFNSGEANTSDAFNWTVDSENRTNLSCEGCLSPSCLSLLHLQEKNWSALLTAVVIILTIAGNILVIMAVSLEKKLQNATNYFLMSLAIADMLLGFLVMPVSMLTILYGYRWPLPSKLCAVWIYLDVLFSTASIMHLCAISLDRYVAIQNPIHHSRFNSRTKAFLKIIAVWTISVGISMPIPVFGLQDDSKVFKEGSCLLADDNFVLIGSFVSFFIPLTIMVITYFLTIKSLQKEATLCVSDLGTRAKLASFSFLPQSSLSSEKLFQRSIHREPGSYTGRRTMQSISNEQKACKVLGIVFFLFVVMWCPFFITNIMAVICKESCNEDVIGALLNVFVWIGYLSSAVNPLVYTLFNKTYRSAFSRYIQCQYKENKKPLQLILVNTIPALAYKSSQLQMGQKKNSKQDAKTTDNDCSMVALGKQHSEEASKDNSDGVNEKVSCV
Description: HEK293 EBNA cells were transiently transfected with expression plasmids encoding for the human D2 or D3 or for the human 5-HT2A receptor, respectively. The cells were harvested 48 h post-transfection, washed three times with cold PBS and stored at −80° C. prior to use. The pellet was suspended in cold 50 mM Tris-HCl buffer containing 10 mM EDTA (pH 7.4) and was homogenized with a Polytron (Kinematica AG, Basel, Switzerland) for 20-30 sec at 12.000 rpm. After centrifugation at 48.000×g for 30 min at 4° C., the pellet was resuspended in cold 10 mM Tris-HCl buffer containing 0.1 mM EDTA (pH 7.4), homogenized, and centrifuged as above. This pellet was further resuspended in a smaller volume of ice cold 10 mM Tris-HCl buffer containing 0.1 mM EDTA (pH 7.4) and homogenized with a Polytron for 20-30 sec at 12.000 rpm. The protein content of this homogenate was determined with the Bio-Rad (Bradford) Protein Assay (Biorad Laboratories GmbH, München, Germany) according to the instructions of the manufacturer using gamma globulin as the standard. This homogenate was stored at −80° C. in aliquots and thawed immediately prior to use.
Radioligand Binding Assay
Aliquots of membrane preparations were thawed at RT, resupended in assay buffer (D2, D3: 50 mM Tris-HCl, 120 mM NaCl, 5 mM MgCl2, 1 mM EDTA, 5 mM KCl, 1.5 mM CaCl2, pH=7.4; 5-HT2A: 50 mM Tris-HCl, 10 mM MgCl2, 1 mM EGTA, pH=7.4), homogenized with a Polytron for 20-30 sec at 12.000 rpm and adjusted to a final concentration of approximately 7.5 μg protein/well (D2, D3) and 15 μg protein/well (5-HT2A), respectively.
The binding affinity (Ki) of the compounds was determined using radioligand binding. […] The nonspecific binding was determined with equally composed reaction mixtures in the presence of 10 μM unlabelled spiperone. Per well 45 μl of Microscint 40 (Perkin Elmer, Schwerzenbach, Switzerland) was added, plates for sealed, shaken for 20 min and counted for 3 min on a Topcount Microplate Scintillation Counter (Canberra Packard SA, Zürich, Switzerland) with quenching correction.
The CPM value for each duplicate of a concentration of competing compound was averaged (y1), then the % specific binding was calculated according to the equation (((y1−non-specific)/(total binding−non-specific))×100). Graphs were plotted with the % specific binding using XLfit, a curve fitting program that iteratively plots the data using Levenberg-Marquardt algorithm. The single site competition analysis equation used was y=A+((B−A)/(1+((x/C)D))), where y is the % specific binding, A is the minimum y, B is the maximum y, C is the IC50, x is the log 10 of the concentration of the competing compound and D is the slope of the curve (the Hill Coefficient). […] The affinity constant (Ki) was calculated using the Cheng-Prusoff equation Ki=(IC50/1+([L]/Kd), where [L] is the concentration of radioligand and Kd is the dissociation constant of the radioligand at the receptor as determined by the saturation isotherm.

Sequence of D3 receptor (P35462 whole entry): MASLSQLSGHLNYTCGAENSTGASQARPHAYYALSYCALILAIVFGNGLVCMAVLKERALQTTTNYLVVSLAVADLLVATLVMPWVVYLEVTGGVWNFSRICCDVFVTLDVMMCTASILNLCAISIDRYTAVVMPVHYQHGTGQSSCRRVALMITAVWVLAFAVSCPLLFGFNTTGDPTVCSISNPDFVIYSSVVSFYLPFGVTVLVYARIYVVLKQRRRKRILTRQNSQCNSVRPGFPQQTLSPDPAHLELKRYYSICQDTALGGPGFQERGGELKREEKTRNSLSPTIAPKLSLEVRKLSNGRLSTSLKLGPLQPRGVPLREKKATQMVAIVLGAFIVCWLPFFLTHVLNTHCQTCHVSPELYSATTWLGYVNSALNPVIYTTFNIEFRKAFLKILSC

| melting point | SMILES | Ki [1] | Ki [2] | Ki [3] | Ki ([3]; human 5-HT2A receptor, HEK293 EBNA membranes, 1.1 nM [3H]-ketanserin) |
| --- | --- | --- | --- | --- | --- |
| 190 °C | O=C(CC1COC1)N[C@H]1CC[C@H](CCN2CCN(c3cccc4c3OCO4)CC2)CC1 [Example 22, Trans-N-{4-[2-(4-Benzo[1,3]dioxol-4-yl-piperazin-1-yl)-ethyl]-cyclohexyl}-2-oxetan-3-yl-acetamide] | 2.06 nM | 106 nM |  |  |
|  | CC(C)[C@@H](O)C(=O)N[C@H]1CC[C@H](CCN2CCN(c3cccc4c3OCO4)CC2)CC1 [Example 39, (R)-Trans-N-{4-[2-(4-Benzo[1,3]dioxol-4-yl-piperazin-1-yl)-ethyl]-cyclohexyl}-2-hydroxy-3-methyl-butyramide] | 5.77 nM | 90.2 nM | 34.7 nM |  |
|  | CC(C)[C@H](O)C(=O)N[C@H]1CC[C@H](CCN2CCN(c3cccc4c3OCO4)CC2)CC1 [Example 40, (S)-Trans-N-{4-[2-(4-Benzo[1,3]dioxol-4-yl-piperazin-1-yl)-ethyl]-cyclohexyl}-2-hydroxy-3-methyl-butyramide] | 14.8 nM | 73.4 nM | 22.5 nM |  |
|  | O=C(N[C@H]1CC[C@H](CCN2CCN(c3cccc4c3OCO4)CC2)CC1)C1CCOCC1 [Example 43, Tetrahydro-pyran-4-carboxylic acid-trans-N-{4-[2-(4-benzo[1,3]dioxol-4-yl-piperazin-1-yl)-ethyl]-cyclohexyl}-amide] | 4.48 nM | 219 nM | 7.74 nM |  |
|  | O=C(N[C@H]1CC[C@H](CCN2CCN(c3cccc4c3OCO4)CC2)CC1)c1ccc2c(c1)OCCO2 [Example 49, 2,3-Dihydro-benzo[1,4]dioxine-6-carboxylic acid-trans-N-{4-[2-(4-benzo[1,3]dioxol-4-yl-piperazin-1-yl)-ethyl]-cyclohexyl}-amide] | 4.59 nM | 4820 nM | 10.7 nM |  |
|  | O=C(N[C@H]1CC[C@H](CCN2CCN(c3cccc4c3OCO4)CC2)CC1)C1CCS(=O)(=O)C1 (stereo partly drawn) [Example 52, 1,1-Dioxo-tetrahydro-1,6-thiophene-3-carboxylic acid-trans-N-{4-[2-(4-benzo[1,3]dioxol-4-yl-piperazin-1-yl)-ethyl]-cyclohexyl}-amide] | 3.56 nM | 59 nM |  | 4.3 nM |
|  | CN1CCC(C(=O)N[C@H]2CC[C@H](CCN3CCN(c4cccc5c4OCO5)CC3)CC2)CC1 [Example 57, 1-Methyl-piperidine-4-carboxylic acid-trans-N-{4-[2-(4-benzo[1,3]dioxol-4-yl-piperazin-1-yl)-ethyl]-cyclohexyl}-amide] | 24.9 nM | 62.9 nM | 15.3 nM |  |
|  | CC1(C(=O)N[C@H]2CC[C@H](CCN3CCN(c4cccc5c4OCO5)CC3)CC2)COC1 [Example 58, 3-Methyl-oxetane-3-carboxylic acid-trans-N-{4-[2-(4-benzo[1,3]dioxol-4-yl-piperazin-1-yl)-ethyl]-cyclohexyl}-amide] | 6.82 nM | 81.1 nM | 15.6 nM |  |
|  | CN1CCN(CC(=O)N[C@H]2CC[C@H](CCN3CCN(c4cccc5c4OCO5)CC3)CC2)CC1 [Example 61, Trans-N-{4-[2-(4-Benzo[1,3]dioxol-4-yl-piperazin-1-yl)-ethyl]-cyclohexyl}-2-(4-methyl-piperazin-1-yl)-acetamide] | 4.63 nM | 38.1 nM | 16 nM |  |
|  | COC1(C(=O)N[C@H]2CC[C@H](CCN3CCN(c4cccc5c4OCO5)CC3)CC2)CC1 [Example 62, 1-Methoxy-cyclopropanecarboxylic acid-trans-N-{4-[2-(4-benzo[1,3]dioxol-4-yl-piperazin-1-yl)-ethyl]-cyclohexyl}-amide] | 14.3 nM | 86.5 nM | 6.27 nM |  |
|  | CN(C)S(=O)(=O)N[C@H]1CC[C@H](CCN2CCN(c3cccc4c3OCO4)CC2)CC1 [Example 76, N-trans-{4-[2-(4-benzo[1,3]dioxol-4-yl-piperazin-1-yl)-ethyl]-cyclohexyl}-N,N-dimethyl-sulfamide] | 3.36 nM | 128 nM | 21.6 nM |  |
